# Measurements: ChEMBL document CHEMBL3991601, “The target landscape of clinical kinase drugs” (Science, 2017)
# Calls of active or inactive are those of the source.
# Target: T1, Ephrin type-A receptor 1 (Homo sapiens, UniProt P21709)
# T1 sequence (P21709 whole entry): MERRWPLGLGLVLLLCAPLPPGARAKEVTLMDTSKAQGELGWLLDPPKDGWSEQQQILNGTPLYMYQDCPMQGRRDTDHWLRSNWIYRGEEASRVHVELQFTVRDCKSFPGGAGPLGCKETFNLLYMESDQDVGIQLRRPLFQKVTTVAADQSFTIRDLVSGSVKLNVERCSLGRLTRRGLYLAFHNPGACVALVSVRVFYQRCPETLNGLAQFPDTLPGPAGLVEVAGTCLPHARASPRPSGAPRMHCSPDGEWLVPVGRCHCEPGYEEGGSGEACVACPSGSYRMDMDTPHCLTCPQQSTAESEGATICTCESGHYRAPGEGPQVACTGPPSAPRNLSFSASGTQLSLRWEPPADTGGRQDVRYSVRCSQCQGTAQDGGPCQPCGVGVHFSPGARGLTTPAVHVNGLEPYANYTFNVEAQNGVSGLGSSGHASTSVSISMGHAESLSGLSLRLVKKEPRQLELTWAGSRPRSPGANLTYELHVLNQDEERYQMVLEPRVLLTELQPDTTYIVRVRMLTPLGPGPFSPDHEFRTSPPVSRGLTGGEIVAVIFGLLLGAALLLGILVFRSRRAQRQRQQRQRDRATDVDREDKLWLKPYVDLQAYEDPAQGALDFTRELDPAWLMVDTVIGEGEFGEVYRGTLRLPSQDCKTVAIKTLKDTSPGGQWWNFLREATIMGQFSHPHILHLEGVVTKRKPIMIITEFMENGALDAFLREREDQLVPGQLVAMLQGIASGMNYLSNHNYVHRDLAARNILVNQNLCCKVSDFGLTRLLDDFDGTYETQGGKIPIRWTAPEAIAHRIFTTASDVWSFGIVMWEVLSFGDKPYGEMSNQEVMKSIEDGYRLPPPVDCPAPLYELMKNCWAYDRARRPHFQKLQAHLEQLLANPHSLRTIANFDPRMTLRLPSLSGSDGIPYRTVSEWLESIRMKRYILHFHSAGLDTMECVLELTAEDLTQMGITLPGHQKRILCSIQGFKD
# Note: in the data inactive means no Kd found up to 30 µM.
row,Compound,Kd
1,Cc1ccc(S(=O)(=O)Nc2nc3ccccc3nc2Nc2ccc3nsnc3c2)cc1,> 30 µM (inactive)
2,O=C(c1ccc(F)c(F)c1Nc1ccc(I)cc1F)N1CC(O)([C@@H]2CCCCN2)C1 [COBIMETINIB],> 30 µM (inactive)
3,CC[C@H](Nc1ncnc2[nH]cnc12)c1nc2cccc(F)c2c(=O)n1-c1ccccc1 [IDELALISIB],> 30 µM (inactive)
4,COC(=O)[C@@]1(O)C[C@H]2O[C@]1(C)n1c3ccccc3c3c4c(c5c6ccccc6n2c5c31)C(=O)NC4 [K-252A],> 30 µM (inactive)

# Target: Ephrin type-A receptor 7 (Homo sapiens, UniProt Q15375)
# Sequence (Q15375 whole entry): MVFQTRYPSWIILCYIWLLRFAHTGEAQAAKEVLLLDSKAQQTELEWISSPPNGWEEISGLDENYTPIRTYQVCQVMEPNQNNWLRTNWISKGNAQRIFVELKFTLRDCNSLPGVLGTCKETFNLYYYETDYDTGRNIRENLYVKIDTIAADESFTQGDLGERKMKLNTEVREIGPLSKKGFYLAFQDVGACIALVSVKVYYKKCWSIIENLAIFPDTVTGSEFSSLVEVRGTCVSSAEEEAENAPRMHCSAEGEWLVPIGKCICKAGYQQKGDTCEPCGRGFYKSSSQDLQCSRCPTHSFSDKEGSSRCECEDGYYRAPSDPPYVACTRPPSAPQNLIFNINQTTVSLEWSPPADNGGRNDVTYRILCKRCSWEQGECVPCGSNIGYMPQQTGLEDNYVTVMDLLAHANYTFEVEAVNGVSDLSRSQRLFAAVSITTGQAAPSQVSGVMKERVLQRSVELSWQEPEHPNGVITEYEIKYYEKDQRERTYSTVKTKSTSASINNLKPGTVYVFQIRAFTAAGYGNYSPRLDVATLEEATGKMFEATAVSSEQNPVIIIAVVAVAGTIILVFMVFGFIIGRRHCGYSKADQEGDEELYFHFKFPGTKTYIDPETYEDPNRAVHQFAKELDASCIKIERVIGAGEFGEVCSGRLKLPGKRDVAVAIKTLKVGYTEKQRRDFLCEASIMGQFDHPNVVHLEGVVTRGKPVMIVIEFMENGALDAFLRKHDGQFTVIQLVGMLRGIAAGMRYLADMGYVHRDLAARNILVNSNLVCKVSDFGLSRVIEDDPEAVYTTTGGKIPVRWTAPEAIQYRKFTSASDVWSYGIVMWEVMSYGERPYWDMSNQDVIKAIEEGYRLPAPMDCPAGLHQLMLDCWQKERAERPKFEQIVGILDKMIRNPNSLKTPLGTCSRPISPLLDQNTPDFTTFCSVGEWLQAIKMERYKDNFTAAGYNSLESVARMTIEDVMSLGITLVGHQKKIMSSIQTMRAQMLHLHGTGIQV
row,Compound,Kd
1,Cc1ccc(S(=O)(=O)Nc2nc3ccccc3nc2Nc2ccc3nsnc3c2)cc1,> 30 µM (inactive)
2,COc1cc(N2CCC(N3CCN(C)CC3)CC2)ccc1Nc1ncnc(Nc2ccccc2S(=O)(=O)C(C)C)n1 [ASP-3026],> 30 µM (inactive)
3,O=C(c1ccc(F)c(F)c1Nc1ccc(I)cc1F)N1CC(O)([C@@H]2CCCCN2)C1 [COBIMETINIB],> 30 µM (inactive)
4,CC[C@H](Nc1ncnc2[nH]cnc12)c1nc2cccc(F)c2c(=O)n1-c1ccccc1 [IDELALISIB],> 30 µM (inactive)
5,COC(=O)[C@@]1(O)C[C@H]2O[C@]1(C)n1c3ccccc3c3c4c(c5c6ccccc6n2c5c31)C(=O)NC4 [K-252A],> 30 µM (inactive)

# Target: T2, Inhibitor of nuclear factor kappa-B kinase subunit epsilon (Homo sapiens, UniProt Q14164)
# T2 sequence (Q14164 whole entry): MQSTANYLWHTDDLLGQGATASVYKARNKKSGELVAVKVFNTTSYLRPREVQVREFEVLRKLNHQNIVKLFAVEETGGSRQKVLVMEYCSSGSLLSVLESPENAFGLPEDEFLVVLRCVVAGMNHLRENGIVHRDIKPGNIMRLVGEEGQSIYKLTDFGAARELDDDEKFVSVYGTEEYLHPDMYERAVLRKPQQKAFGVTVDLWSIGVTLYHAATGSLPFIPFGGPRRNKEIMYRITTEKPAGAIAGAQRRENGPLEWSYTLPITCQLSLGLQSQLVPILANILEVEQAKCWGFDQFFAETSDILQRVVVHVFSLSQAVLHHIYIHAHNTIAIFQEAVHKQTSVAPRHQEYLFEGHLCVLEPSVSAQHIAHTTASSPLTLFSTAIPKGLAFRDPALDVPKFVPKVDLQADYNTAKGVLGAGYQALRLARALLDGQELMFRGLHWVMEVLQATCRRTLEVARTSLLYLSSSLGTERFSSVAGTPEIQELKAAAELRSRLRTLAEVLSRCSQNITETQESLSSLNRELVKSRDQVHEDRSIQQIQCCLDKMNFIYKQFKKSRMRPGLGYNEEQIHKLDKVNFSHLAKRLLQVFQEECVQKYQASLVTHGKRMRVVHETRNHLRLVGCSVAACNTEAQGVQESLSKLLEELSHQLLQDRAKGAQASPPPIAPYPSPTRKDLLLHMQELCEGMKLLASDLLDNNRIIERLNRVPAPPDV
row,Compound,Kd
1,Cc1ccc(S(=O)(=O)Nc2nc3ccccc3nc2Nc2ccc3nsnc3c2)cc1,> 30 µM (inactive)
2,COc1cc(N2CCC(N3CCN(C)CC3)CC2)ccc1Nc1ncnc(Nc2ccccc2S(=O)(=O)C(C)C)n1 [ASP-3026],> 30 µM (inactive)
3,O=C(c1ccc(F)c(F)c1Nc1ccc(I)cc1F)N1CC(O)([C@@H]2CCCCN2)C1 [COBIMETINIB],> 30 µM (inactive)
4,COC(=O)[C@@]1(O)C[C@H]2O[C@]1(C)n1c3ccccc3c3c4c(c5c6ccccc6n2c5c31)C(=O)NC4 [K-252A],0.494 µM (active)

# Target: Hepatocyte growth factor receptor (Homo sapiens, UniProt P08581)
# Sequence (P08581 whole entry): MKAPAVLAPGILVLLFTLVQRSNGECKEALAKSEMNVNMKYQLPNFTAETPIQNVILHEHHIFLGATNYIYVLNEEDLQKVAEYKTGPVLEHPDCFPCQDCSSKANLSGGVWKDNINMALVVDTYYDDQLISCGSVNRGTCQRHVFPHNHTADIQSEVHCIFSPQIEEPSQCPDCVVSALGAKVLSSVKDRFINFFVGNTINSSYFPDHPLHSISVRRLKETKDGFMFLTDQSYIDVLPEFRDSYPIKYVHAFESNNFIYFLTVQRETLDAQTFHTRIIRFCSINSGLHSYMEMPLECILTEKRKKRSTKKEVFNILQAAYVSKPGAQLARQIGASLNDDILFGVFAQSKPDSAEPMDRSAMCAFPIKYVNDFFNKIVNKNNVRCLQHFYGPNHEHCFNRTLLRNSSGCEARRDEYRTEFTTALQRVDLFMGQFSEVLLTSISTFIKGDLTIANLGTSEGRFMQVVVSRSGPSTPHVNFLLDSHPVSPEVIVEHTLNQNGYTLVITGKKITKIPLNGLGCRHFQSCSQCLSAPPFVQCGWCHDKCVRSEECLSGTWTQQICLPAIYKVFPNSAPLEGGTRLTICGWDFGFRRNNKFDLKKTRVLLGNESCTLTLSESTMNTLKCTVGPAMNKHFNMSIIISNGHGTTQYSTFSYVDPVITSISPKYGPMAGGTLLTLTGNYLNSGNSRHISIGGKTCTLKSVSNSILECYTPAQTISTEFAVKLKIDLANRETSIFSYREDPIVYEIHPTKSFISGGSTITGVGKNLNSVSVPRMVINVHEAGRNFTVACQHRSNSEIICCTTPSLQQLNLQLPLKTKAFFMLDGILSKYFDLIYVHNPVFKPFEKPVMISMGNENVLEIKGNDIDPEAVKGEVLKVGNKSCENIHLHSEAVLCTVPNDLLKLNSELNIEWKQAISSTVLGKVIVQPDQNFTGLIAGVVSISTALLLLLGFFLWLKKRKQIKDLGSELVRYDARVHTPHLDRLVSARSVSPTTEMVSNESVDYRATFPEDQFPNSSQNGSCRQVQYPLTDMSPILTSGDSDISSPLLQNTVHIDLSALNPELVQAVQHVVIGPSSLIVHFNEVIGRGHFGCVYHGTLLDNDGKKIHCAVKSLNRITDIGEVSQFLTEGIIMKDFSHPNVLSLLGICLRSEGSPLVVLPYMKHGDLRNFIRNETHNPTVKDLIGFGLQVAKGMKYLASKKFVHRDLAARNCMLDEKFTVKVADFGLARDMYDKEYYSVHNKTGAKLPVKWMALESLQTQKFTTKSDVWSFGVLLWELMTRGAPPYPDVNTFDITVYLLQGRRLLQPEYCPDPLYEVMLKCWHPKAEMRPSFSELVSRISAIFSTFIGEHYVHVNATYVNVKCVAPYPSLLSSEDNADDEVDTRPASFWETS
row,Compound,Kd
1,COc1cc(N2CCC(N3CCN(C)CC3)CC2)ccc1Nc1ncnc(Nc2ccccc2S(=O)(=O)C(C)C)n1 [ASP-3026],> 30 µM (inactive)
2,O=C(c1ccc(F)c(F)c1Nc1ccc(I)cc1F)N1CC(O)([C@@H]2CCCCN2)C1 [COBIMETINIB],> 30 µM (inactive)
3,COC(=O)[C@@]1(O)C[C@H]2O[C@]1(C)n1c3ccccc3c3c4c(c5c6ccccc6n2c5c31)C(=O)NC4 [K-252A],> 30 µM (inactive)

# Target: High affinity nerve growth factor receptor (Homo sapiens, UniProt P04629)
row,Compound,Kd
1,Cc1ccc(S(=O)(=O)Nc2nc3ccccc3nc2Nc2ccc3nsnc3c2)cc1,> 30 µM (inactive)
2,COc1cc(N2CCC(N3CCN(C)CC3)CC2)ccc1Nc1ncnc(Nc2ccccc2S(=O)(=O)C(C)C)n1 [ASP-3026],> 30 µM (inactive)
3,O=C(c1ccc(F)c(F)c1Nc1ccc(I)cc1F)N1CC(O)([C@@H]2CCCCN2)C1 [COBIMETINIB],> 30 µM (inactive)
4,CC[C@H](Nc1ncnc2[nH]cnc12)c1nc2cccc(F)c2c(=O)n1-c1ccccc1 [IDELALISIB],> 30 µM (inactive)

# Target: Serine/threonine-protein kinase PAK 6 (Homo sapiens, UniProt Q9NQU5)
# Sequence (Q9NQU5 whole entry): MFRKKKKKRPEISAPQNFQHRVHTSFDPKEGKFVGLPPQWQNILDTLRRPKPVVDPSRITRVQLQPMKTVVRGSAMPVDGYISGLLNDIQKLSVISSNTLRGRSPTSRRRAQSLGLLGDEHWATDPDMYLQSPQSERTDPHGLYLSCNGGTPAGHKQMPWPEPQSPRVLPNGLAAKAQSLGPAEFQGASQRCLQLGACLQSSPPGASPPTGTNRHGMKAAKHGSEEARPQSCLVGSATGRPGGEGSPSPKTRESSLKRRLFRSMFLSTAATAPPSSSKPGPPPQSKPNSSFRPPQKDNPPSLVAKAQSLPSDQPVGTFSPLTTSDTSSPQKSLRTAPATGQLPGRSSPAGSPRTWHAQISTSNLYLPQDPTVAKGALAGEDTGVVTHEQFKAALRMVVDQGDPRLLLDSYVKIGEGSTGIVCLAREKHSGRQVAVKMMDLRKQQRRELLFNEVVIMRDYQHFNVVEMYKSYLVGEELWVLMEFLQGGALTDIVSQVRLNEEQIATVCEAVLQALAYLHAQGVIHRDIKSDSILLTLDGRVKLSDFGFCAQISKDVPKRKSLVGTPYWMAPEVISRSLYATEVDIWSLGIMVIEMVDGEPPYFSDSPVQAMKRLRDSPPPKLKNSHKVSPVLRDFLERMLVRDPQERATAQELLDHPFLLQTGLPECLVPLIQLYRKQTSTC
row,Compound,Kd
1,COc1cc(N2CCC(N3CCN(C)CC3)CC2)ccc1Nc1ncnc(Nc2ccccc2S(=O)(=O)C(C)C)n1 [ASP-3026],> 30 µM (inactive)
2,O=C(c1ccc(F)c(F)c1Nc1ccc(I)cc1F)N1CC(O)([C@@H]2CCCCN2)C1 [COBIMETINIB],> 30 µM (inactive)
3,CC[C@H](Nc1ncnc2[nH]cnc12)c1nc2cccc(F)c2c(=O)n1-c1ccccc1 [IDELALISIB],> 30 µM (inactive)
4,COC(=O)[C@@]1(O)C[C@H]2O[C@]1(C)n1c3ccccc3c3c4c(c5c6ccccc6n2c5c31)C(=O)NC4 [K-252A],> 30 µM (inactive)

# Target: Membrane-associated progesterone receptor component 1 (Homo sapiens, UniProt O00264)
# Sequence (O00264 whole entry): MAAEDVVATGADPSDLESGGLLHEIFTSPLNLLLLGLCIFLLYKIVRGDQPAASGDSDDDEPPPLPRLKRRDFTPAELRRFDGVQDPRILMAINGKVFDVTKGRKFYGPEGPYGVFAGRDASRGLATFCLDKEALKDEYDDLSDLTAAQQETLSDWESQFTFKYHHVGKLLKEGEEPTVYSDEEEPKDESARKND
row,Compound,Kd
1,O=C(c1ccc(F)c(F)c1Nc1ccc(I)cc1F)N1CC(O)([C@@H]2CCCCN2)C1 [COBIMETINIB],> 30 µM (inactive)
2,CC[C@H](Nc1ncnc2[nH]cnc12)c1nc2cccc(F)c2c(=O)n1-c1ccccc1 [IDELALISIB],> 30 µM (inactive)
3,COC(=O)[C@@]1(O)C[C@H]2O[C@]1(C)n1c3ccccc3c3c4c(c5c6ccccc6n2c5c31)C(=O)NC4 [K-252A],> 30 µM (inactive)

# Target: Serine/threonine-protein kinase pim-2 (Homo sapiens, UniProt Q9P1W9)
# Sequence (Q9P1W9 whole entry): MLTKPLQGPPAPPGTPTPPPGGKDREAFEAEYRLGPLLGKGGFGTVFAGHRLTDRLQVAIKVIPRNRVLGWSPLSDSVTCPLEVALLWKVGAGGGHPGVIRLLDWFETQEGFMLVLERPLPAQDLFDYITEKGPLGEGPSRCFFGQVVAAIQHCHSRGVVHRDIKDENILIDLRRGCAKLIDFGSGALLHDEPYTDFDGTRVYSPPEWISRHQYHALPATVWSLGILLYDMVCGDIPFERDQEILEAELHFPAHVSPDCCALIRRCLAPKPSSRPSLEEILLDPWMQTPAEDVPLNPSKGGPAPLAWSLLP
row,Compound,Kd
1,COc1cc(N2CCC(N3CCN(C)CC3)CC2)ccc1Nc1ncnc(Nc2ccccc2S(=O)(=O)C(C)C)n1 [ASP-3026],> 30 µM (inactive)
2,COC(=O)[C@@]1(O)C[C@H]2O[C@]1(C)n1c3ccccc3c3c4c(c5c6ccccc6n2c5c31)C(=O)NC4 [K-252A],> 30 µM (inactive)

# Target: Serine/threonine-protein kinase 38-like (Homo sapiens, UniProt Q9Y2H1)
# Sequence (Q9Y2H1 whole entry): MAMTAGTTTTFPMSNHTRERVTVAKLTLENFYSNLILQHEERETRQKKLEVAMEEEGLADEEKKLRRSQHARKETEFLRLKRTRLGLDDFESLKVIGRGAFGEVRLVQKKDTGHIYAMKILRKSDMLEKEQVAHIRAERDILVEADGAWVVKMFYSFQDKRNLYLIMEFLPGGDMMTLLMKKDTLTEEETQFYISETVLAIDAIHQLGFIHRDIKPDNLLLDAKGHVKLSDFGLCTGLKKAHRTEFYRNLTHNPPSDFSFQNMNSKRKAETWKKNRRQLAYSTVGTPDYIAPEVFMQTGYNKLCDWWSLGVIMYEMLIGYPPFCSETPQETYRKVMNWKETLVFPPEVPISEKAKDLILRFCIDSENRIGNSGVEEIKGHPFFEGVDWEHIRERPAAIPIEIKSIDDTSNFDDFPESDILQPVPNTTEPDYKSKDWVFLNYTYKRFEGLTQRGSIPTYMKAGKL
row,Compound,Kd
1,Cc1ccc(S(=O)(=O)Nc2nc3ccccc3nc2Nc2ccc3nsnc3c2)cc1,> 30 µM (inactive)
2,O=C(c1ccc(F)c(F)c1Nc1ccc(I)cc1F)N1CC(O)([C@@H]2CCCCN2)C1 [COBIMETINIB],> 30 µM (inactive)
3,CC[C@H](Nc1ncnc2[nH]cnc12)c1nc2cccc(F)c2c(=O)n1-c1ccccc1 [IDELALISIB],> 30 µM (inactive)
4,COC(=O)[C@@]1(O)C[C@H]2O[C@]1(C)n1c3ccccc3c3c4c(c5c6ccccc6n2c5c31)C(=O)NC4 [K-252A],2.14 µM (active)

# Target: Dual specificity testis-specific protein kinase 1 (Homo sapiens, UniProt Q15569)
# Sequence (Q15569 whole entry): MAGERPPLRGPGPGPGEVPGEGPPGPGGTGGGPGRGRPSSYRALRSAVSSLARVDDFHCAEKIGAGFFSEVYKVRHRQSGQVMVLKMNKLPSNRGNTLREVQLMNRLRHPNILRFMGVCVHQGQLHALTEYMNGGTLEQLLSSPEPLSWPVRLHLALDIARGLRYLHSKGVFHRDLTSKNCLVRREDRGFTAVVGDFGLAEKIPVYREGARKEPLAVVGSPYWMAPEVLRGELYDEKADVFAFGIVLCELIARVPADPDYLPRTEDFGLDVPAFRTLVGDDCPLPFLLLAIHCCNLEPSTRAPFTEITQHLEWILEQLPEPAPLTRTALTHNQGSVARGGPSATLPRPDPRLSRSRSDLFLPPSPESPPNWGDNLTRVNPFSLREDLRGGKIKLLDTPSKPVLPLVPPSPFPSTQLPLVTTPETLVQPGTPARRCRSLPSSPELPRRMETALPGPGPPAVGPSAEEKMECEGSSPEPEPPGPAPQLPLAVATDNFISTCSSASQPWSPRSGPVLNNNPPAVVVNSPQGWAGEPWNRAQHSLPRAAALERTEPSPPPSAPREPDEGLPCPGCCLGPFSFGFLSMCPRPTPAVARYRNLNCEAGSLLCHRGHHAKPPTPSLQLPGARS
row,Compound,Kd
1,Cc1ccc(S(=O)(=O)Nc2nc3ccccc3nc2Nc2ccc3nsnc3c2)cc1,> 30 µM (inactive)
2,COc1cc(N2CCC(N3CCN(C)CC3)CC2)ccc1Nc1ncnc(Nc2ccccc2S(=O)(=O)C(C)C)n1 [ASP-3026],> 30 µM (inactive)
3,O=C(c1ccc(F)c(F)c1Nc1ccc(I)cc1F)N1CC(O)([C@@H]2CCCCN2)C1 [COBIMETINIB],> 30 µM (inactive)
4,CC[C@H](Nc1ncnc2[nH]cnc12)c1nc2cccc(F)c2c(=O)n1-c1ccccc1 [IDELALISIB],> 30 µM (inactive)
5,COC(=O)[C@@]1(O)C[C@H]2O[C@]1(C)n1c3ccccc3c3c4c(c5c6ccccc6n2c5c31)C(=O)NC4 [K-252A],> 30 µM (inactive)
